# Laboratory results published in ChEMBL document CHEMBL1201862, “PubChem BioAssay data set” (2004).
# Active and inactive are the calls of the source.
# What was measured:
# [1] = Luminescence Cell-Based Dose Confirmation HTS to Identify Activators of 5'UTR Stem-Loop Driven Alpha-Synuclein mRNA Translation in H4 Neuroglioblastoma Cells. [Related pubchem assays: 1829 (Project Summary), 1814 (Primary HTS)]; type: functional
# [2] = Luminescence Cell-Based Dose Response HTS to Identify Activators of Luciferase Translation or Activity in H4 […] Cells. [Related pubchem assays: 1829 (Project Summary), 1814 (Primary HTS)]; type: functional
# [3] = test system: H4; assay: Luminescence Cell-Based Dose Response HTS to Identify Activators of 5'UTR Stem-Loop Driven Prion Protein mRNA Translation in H4 Neuroglioblastoma Cells. [Related pubchem assays: 1829 (Project Summary), 1814 (Primary HTS)]; type: functional; conditions: Homo sapiens
# [4] = molecular target: Heat shock protein HSP 90-alpha (Homo sapiens, UniProt P07900); assay: Luminescence-based dose response biochemical high throughput screening assay for inhibitors of the Heat Shock Protein 90 (HSP90). [Related pubchem assays: 1831 (Summary AID.), 1846 (Confirmation screen.), 1789 (Primary screen.)]
# [5] = molecular target: Voltage-gated inwardly rectifying potassium channel KCNH2 (Homo sapiens, UniProt Q12809); assay: hERG protection from proarrhythmic block, potency, dose response, cell-based, thallium flux (AID 2121); type: ADME
# [6] = molecular target: T1, Neuropeptide Y receptor type 2 (Homo sapiens, UniProt P49146); assay: NPY-Y2 antagonist potency, selectivity check, dose response, counter-screen for NPY-Y1 antagonist project, cell-based (AID 1278); type: functional
# T1 sequence (P49146 whole entry): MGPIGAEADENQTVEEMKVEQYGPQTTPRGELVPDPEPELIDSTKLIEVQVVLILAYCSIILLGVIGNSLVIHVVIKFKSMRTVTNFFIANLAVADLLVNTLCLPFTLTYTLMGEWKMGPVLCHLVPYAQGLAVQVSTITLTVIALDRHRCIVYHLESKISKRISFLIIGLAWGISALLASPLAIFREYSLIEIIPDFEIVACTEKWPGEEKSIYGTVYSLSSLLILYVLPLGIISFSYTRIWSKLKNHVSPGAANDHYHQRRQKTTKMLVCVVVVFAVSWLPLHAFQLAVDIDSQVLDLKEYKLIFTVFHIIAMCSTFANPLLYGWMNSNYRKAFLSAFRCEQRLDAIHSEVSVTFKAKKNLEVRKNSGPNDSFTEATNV
# [7] = molecular target: T2, Neuropeptide Y receptor type 1 (Homo sapiens, UniProt P25929); assay: NPY-Y1 receptor antagonist potency, dose response, cell-based (AID 1277); type: functional
# T2 sequence (P25929 whole entry): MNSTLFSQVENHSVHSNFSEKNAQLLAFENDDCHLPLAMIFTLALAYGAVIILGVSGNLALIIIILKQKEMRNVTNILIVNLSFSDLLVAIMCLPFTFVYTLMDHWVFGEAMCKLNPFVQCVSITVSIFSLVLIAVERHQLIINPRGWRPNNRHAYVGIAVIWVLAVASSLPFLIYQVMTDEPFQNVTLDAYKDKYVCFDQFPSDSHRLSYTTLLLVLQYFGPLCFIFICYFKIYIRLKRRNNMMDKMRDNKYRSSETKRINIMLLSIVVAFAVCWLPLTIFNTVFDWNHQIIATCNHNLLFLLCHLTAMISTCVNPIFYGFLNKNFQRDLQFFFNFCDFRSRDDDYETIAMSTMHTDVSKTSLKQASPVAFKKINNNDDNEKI
# [8] = molecular target: 5-hydroxytryptamine receptor 1A (Homo sapiens, UniProt P08908); type: functional
# [9] = molecular target: T3, Protein skinhead-1 (Caenorhabditis elegans, UniProt P34707); type: functional
# T3 sequence (P34707 whole entry): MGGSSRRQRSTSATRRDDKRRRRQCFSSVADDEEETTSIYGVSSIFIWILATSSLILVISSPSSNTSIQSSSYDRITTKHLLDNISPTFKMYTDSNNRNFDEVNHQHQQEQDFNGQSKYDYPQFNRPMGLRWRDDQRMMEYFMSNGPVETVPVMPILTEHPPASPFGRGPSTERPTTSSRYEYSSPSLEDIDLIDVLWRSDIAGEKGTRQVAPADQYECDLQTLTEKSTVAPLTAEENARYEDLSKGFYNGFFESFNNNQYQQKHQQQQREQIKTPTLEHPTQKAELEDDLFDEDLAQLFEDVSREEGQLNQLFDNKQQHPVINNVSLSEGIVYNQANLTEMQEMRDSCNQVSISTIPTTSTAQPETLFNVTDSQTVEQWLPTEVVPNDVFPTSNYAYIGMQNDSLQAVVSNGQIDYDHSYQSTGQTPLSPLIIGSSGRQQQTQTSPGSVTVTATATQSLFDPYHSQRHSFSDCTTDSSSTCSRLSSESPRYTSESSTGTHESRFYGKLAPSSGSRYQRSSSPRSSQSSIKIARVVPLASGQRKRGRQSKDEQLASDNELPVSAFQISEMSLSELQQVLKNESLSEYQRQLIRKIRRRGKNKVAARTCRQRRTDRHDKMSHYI
# [10] = molecular target: Galanin receptor type 2 (Homo sapiens, UniProt O43603); assay: Dose Response cell-based high-throughput screening assay to identify antagonists of galanin receptor 2 (GALR2). [Related pubchem assays: 828, 866 ]; type: functional
# [11] = molecular target: Bifunctional protein GlmU (Mycobacterium tuberculosis, UniProt P9WMN3); assay: Inhibitors of Mycobacterial Glucosamine-1-phosphate acetyl transferase (GlmU). Secondary screen.; parameters: species or system Mycobacterium tuberculosis H37Rv
# [12] = molecular target: Luciferin 4-monooxygenase (Photinus pyralis, UniProt P08659); assay: firefly luciferase enzyme inhibitors, dose response, biochemical, luminescence (AID 1891)
# [13] = Luminescence Cell-Based Dose Confirmation HTS to Identify Inhibitors of Platelet Dense Granule Release. [Related pubchem assays: 1663 (Primary HTS), 1678 (Summary of Project)]; type: functional
# [14] = Fluorescence Cell-Based Dose Response to Identify Inhibitors of Thrombin Receptor-Activating Peptide SFLLRN-Mediated P-Selectin Induction on Platelets. [Related pubchem assays: 1663 (Primary HTS), 1889 (retest at dose ), 1891 (counterscreen), 1678 (Project Summary)]; type: functional
# [15] = HEp-2 cell cytotoxicity, dose response, cytotoxicity control for RSV inhibitor project, HTS (AID 2410); type: functional; conditions: human respiratory syncytial virus
# [16] = inhibitors of firefly luciferase expression or activity, dose response, H4 neuroglioma cells, luminescence (AID 1990); type: functional, cell-based
# [17] = Luminescence Cell-Based Dose Response HTS to Identify Inhibitors of 5'UTR Stem-Loop Driven Prion Protein mRNA Translation in H4 Neuroglioblastoma Cells. [Related pubchem assays: 1827 (Project Summary), 1813 (Primary HTS)]; type: functional
# [18] = test system: Vero; assay: host cell cytotoxicity of antiviral hits, dose response, cytotoxicity control for West Nile virus antiviral project, secondary assay (AID 1650); type: functional; conditions: Chlorocebus sabaeus
# [19] = inhibitors of SNCA 5'UTR-driven reporter translation, confirmation, H4 neuroglioma cells, luminescence (AID 1988); type: functional, cell-based
# [20] = M. tuberculosis growth inhibition, HTS (AID 449762); type: functional
# [21] = molecular target: T4, Mannose-6-phosphate isomerase (Homo sapiens, UniProt P34949); assay: inhibitors of human PMI, primary screen, biochemical, fluorescence intensity, coupled assay (AID 1209)
# T4 sequence (P34949 whole entry): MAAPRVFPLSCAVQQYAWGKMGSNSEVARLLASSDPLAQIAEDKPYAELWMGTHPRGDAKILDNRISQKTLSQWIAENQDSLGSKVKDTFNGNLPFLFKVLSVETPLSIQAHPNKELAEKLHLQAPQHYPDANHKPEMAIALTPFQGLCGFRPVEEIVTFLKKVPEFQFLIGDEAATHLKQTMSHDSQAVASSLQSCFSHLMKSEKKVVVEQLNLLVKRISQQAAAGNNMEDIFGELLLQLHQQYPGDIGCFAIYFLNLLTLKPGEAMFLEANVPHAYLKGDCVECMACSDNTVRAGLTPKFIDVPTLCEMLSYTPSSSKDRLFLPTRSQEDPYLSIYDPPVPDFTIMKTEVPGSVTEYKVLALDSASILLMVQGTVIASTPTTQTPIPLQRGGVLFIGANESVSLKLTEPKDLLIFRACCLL
# [22] = molecular target: Sphingosine 1-phosphate receptor 1 (Homo sapiens, UniProt P21453); assay: Cell-membrane dose response assay to identify antagonists of the Sphingosine 1-Phosphate receptor 1 (S1P1).; type: functional
# Sequence of Sphingosine 1-phosphate receptor 1 (P21453 whole entry): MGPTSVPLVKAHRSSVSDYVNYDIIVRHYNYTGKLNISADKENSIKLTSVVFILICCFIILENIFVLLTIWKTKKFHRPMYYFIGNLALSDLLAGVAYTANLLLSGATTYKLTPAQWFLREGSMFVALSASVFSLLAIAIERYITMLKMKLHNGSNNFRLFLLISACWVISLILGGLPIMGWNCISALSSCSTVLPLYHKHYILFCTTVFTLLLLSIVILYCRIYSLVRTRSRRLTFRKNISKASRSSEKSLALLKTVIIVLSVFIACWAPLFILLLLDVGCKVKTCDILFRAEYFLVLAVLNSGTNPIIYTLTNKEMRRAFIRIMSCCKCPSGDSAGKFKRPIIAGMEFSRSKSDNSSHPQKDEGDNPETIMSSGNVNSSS
# Sequence of Voltage-gated inwardly rectifying potassium channel KCNH2 (Q12809 whole entry): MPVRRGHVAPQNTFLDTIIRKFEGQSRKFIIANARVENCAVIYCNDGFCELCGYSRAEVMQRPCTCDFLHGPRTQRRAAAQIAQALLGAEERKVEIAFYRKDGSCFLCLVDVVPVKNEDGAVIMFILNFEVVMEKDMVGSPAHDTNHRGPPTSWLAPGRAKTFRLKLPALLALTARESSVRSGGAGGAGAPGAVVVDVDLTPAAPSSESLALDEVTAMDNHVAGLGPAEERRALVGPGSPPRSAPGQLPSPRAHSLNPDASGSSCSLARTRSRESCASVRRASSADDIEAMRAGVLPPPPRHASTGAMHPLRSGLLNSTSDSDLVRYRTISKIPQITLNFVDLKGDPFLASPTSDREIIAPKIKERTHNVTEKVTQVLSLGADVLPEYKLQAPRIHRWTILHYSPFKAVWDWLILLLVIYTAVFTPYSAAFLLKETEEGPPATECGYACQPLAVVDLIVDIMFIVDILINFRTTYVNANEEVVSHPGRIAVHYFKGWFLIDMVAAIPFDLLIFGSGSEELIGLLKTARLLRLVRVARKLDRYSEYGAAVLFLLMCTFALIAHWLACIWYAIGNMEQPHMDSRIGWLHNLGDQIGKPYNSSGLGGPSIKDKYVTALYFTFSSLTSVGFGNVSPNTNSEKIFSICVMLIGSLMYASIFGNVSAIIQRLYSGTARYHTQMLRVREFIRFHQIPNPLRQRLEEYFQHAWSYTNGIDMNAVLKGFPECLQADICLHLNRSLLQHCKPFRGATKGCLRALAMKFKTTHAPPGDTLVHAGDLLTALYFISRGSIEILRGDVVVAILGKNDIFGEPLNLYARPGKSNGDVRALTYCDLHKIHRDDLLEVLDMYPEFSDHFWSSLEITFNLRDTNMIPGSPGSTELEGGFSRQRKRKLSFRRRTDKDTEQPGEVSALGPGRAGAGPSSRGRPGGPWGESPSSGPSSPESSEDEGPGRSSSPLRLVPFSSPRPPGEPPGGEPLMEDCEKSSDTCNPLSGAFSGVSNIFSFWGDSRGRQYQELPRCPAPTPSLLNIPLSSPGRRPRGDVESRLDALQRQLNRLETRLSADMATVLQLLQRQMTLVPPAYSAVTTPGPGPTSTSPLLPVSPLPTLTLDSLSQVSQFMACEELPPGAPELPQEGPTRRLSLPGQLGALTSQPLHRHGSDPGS
# Sequence of Bifunctional protein GlmU (P9WMN3 whole entry): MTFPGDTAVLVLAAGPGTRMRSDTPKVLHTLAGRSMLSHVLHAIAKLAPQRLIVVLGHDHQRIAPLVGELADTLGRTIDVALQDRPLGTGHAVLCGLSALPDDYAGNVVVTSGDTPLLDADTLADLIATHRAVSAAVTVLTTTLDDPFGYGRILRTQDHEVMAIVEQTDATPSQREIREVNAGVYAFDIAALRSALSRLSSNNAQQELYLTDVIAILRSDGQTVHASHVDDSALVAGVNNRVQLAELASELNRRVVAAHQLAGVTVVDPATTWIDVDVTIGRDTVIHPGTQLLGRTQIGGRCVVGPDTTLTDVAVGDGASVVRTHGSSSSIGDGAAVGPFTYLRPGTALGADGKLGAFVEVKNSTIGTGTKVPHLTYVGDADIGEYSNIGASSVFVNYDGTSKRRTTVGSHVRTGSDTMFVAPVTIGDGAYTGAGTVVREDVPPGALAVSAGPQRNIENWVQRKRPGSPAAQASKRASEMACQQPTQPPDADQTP
# Sequence of Galanin receptor type 2 (O43603 whole entry): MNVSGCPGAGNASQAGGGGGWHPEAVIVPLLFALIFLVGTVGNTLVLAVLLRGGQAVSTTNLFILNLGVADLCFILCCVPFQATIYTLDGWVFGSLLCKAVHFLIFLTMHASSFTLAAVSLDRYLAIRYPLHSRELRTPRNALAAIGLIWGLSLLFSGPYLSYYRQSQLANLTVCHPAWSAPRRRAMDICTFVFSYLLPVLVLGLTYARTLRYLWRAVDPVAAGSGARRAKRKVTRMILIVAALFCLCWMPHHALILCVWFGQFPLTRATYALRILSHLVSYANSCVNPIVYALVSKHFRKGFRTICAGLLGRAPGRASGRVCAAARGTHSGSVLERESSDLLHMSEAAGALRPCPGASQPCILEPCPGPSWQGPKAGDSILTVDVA
# Sequence of 5-hydroxytryptamine receptor 1A (P08908 whole entry): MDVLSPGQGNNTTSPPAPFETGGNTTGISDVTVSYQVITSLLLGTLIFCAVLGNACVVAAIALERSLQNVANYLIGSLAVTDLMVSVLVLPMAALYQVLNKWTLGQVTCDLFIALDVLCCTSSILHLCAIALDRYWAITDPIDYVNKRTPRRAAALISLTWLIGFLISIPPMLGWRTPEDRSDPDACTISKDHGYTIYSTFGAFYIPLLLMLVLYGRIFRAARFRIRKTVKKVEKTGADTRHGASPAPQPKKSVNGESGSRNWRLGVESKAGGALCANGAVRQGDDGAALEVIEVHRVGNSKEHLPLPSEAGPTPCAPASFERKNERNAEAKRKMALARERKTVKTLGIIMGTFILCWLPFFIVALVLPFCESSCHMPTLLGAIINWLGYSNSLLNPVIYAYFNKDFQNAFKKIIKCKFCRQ
# Sequence of Luciferin 4-monooxygenase (P08659 whole entry): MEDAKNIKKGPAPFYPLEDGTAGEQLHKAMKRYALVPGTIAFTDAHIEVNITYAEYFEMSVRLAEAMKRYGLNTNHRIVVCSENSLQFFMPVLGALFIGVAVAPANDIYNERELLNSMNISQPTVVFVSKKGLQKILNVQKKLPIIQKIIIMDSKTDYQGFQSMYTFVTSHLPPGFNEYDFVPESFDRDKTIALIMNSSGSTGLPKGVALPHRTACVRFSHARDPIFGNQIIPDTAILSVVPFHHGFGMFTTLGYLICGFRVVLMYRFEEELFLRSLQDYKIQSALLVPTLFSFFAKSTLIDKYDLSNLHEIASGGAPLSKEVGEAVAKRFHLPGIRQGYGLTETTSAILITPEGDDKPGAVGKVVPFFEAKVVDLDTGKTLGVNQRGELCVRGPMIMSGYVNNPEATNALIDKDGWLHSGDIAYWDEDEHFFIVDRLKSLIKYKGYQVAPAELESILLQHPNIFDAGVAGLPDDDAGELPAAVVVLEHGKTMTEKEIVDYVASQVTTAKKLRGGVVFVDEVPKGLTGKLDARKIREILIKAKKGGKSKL
compound,measurement,setting,value
Cc1nc(NC(=O)c2cccc(Cl)c2)sc1C(=O)N1CCCCC1,EC50,[1],12.2 µM (active)
same,EC50,[2],14.2 µM (active)
same,EC50,[3],20.1 µM (active)
same,IC50,[4],6.4 µM (active)
CC(C)CNC(=S)NC(=O)c1ccc(Cl)cc1,EC50,[5],6.61 µM (active)
Cc1ccc(C)c(SCc2noc(C(=O)NCC3CCCO3)c2C(=O)O)c1 (configuration not stated),IC50,[6],26.4 µM (not active)
same,IC50,[7],> 35 µM (not active)
O=C(COC(=O)CCC1CCCC1)Nc1ccc(Cl)cn1,EC50,[8],> 50 µM (not active)
same,IC50,[9],> 100 µM (inactive)
CCn1c2ccc(C)cc2c2nc3cc(C(=O)O)ccc3nc21,IC50,[10],> 42 µM (not active)
same,IC50,[11],191 µM (active)
O=C(Oc1ccc(Cl)cc1)c1ccc(COC(=O)c2cnccn2)cc1,EC50,[12],> 112 µM (not active)
same,EC50,[13],7.27 µM (active)
same,EC50,[14],> 100 µM (not active)
CC12CC[C@H]3[C@@H](CCC4(O)C[C@H](O)CCC34/C=N/NC(=O)c3ccccc3[N+](=O)[O-])C1(O)CCC2C1=CC(=O)OC1 (some centres not stated),CC50,[15],12.9 µM (active)
same,EC50,[16],11.2 µM (active)
same,EC50,[17],11.9 µM (active)
same,CC50,[18],32 µM (active)
same,EC50,[19],8.77 µM (active)
O=C1c2ccccc2C(=O)N1Nc1ccccc1,IC50,[20],> 100 µM (active)
CC1(C(=O)CSc2nc[nH]n2)CCC(=O)O1 (configuration not stated),IC50,[21],> 50 µM (not active)
CCCCCCc1cccc(NC(=O)[C@H](N)CCP(=O)(O)O)c1,Ki,[22],4.63 µM (active)
